This is an account of results in article PMC10284832, “Cyclic di-AMP traps proton-coupled K^+ transporters of the KUP family in an inward-occluded conformation” (Nature Communications, 2023).

The target in series [1] is T1, KimA (Bacillus subtilis, UniProt P96589).
T1 construct: full-length membrane protein, homodimer with swapped cytosolic domains; plasmid pB24KimA, expressed in E. coli LB2003
T1 sequence (P96589 1-607): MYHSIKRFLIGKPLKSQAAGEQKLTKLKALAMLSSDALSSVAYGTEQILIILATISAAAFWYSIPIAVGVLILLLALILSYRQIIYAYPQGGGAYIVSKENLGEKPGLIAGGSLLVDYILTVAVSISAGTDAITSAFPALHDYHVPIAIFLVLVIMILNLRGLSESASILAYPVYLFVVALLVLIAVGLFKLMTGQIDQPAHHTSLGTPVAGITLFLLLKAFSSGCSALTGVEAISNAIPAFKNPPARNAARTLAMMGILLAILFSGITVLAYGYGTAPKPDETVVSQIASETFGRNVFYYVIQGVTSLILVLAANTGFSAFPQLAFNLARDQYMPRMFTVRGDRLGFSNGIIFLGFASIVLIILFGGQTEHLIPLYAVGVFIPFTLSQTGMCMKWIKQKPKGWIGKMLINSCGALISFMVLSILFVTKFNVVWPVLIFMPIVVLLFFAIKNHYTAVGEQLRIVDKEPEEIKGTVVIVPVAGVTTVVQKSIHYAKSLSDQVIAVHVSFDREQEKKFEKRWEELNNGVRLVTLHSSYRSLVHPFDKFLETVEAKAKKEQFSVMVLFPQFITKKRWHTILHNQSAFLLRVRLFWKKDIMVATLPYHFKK
Briefly: differential scanning fluorometry (CPM dye). Conditions: three-fold molar excess c-di-AMP over KimA; KimA purified from cells co-producing CdaA, in DDM; shift fits 48.1 °C (KimA without CdaA) to 54.7 °C; text calls it a further increase although the CdaA sa. It counts as binding. In general terms: Differential scanning fluorimetry follows unfolding on heating by fluorescence.

For series [2], the target named is T1, KimA. Briefly: whole-cell K+ uptake in E. coli LB2003 (flame AAS). Conditions: c-di-AMP made in the cells by co-expressed CdaA (concentration unknown) versus inactive CdaA D171N; 200 mM HEPES TEA pH 7.5; allosteric site in cytosolic domain. In kind it is cell-based.
Series [3] concerns the target T1, KimA. Briefly: cryo-EM structure ([…] Å in DDM, […] Å in amphipols). The note with it: two c-di-AMP per dimer, cytosolic domain sites; co-produced with CdaA; ten-fold molar excess added in DDM. It counts as binding.
Series [4] addresses T2, KimA (Bacillus subtilis, UniProt P96589, R337A).
T2 construct: full-length membrane protein, homodimer with swapped cytosolic domains; plasmid pB24KimA, expressed in E. coli LB2003
Put plainly: whole-cell K+ uptake in E. coli LB2003 (flame AAS). In kind it is cell-based. Conditions: c-di-AMP made in the cells by co-expressed CdaA (concentration unknown) versus inactive CdaA D171N; 200 mM HEPES TEA pH 7.5; allosteric site in cytosolic domain.

In series [5] the target is T3, KimA (Bacillus subtilis, UniProt P96589, N237A).
T3 construct: full-length membrane protein, homodimer with swapped cytosolic domains; plasmid pB24KimA, expressed in E. coli LB2003
T3 sequence (P96589 whole entry N237A, the tested form may be a part): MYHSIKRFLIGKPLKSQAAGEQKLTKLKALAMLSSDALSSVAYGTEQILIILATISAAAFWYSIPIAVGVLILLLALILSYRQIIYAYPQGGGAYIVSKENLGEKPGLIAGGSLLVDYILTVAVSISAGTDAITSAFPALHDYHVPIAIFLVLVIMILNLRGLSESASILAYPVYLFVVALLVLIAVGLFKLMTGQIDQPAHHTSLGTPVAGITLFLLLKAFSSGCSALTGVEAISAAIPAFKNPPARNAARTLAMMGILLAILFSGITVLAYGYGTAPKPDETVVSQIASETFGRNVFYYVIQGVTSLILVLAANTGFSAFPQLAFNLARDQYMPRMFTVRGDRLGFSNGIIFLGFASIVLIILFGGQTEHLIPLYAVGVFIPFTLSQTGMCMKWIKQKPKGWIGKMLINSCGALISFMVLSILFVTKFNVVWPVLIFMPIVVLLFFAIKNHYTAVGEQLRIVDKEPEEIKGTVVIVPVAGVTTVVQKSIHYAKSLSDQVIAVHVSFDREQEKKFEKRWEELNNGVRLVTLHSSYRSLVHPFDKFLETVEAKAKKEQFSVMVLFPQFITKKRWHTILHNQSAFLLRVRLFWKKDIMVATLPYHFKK
Briefly: differential scanning fluorometry (CPM dye). The note with it: c-di-AMP binding to variant; method inferred from the DSF section.

Series [6] concerns the molecule itself. Briefly: cryo-EM structure; KimA in DDM at 4.0 mg/ml, purified after co-production with CdaA, ten-fold molar excess of c-di-AMP added after purification; 3.3 Å map with C2 symmetry.
Series [7] deals with the molecule itself. Briefly: cryo-EM structure; KimA reconstituted in amphipols (PMAL C8) at 2.25 mg/ml, purified after co-expression with cdaA; 50 mM NaCl, 50 mM KCl, 20 mM Tris-HCl pH 8; 3.8 Å map with C2 symmetry.

T2 sequence (P96589 whole entry R337A, the tested form may be a part): as the sequence (P96589 whole entry N237A, the tested form may be a part) above, with A237N, R337A counted along it

As to `Nc1ncnc2c1ncn2[C@@H]1O[C@@H]2COP(=O)(O)O[C@H]3[C@@H](O)[C@H](n4cnc5c(N)ncnc54)O[C@@H]3COP(=O)(O)O[C@H]2[C@H]1O` [c-di-AMP], the dTm at KimA [1] was found to be 6.6 °C. Besides, the “% reduction of Vmax” value is listed as ~ 64% at KimA [2] and ~ 44% at KimA [4]. The “cryo-EM structure (3.3 Å in DDM, 3.8 Å in amphipols)” value at KimA [3] was “two non-protein densities in the CDs, which were modelled as c-di-AMP”. For the same molecule, on KimA [5], the Tm entry is recorded as “while binding of c-di-AMP was still possible”.

B1: K+/H+ symporter KimA from B. subtilis, in DDM, with bound c-di-AMP (natural protein)
chain: T1 sequence (P96589 1-607)
notes: KimA, K+/H+ symporter of the KUP family, Bacillus subtilis; expressed from pB24KimA; residues 30-606 are compared in the structures (TMD 30-462, cytosolic domain 462-606); Homodimer with swapped cytosolic domains; A ten-fold molar excess of c-di-AMP was added after purification; The construct has a C-terminal HRV-3C protease site; No cleavage is described for the DDM sample; also called KimA WT; …
In the case of B1, the binding result in series [6] was “binds”.

B2: K+/H+ symporter KimA from B. subtilis, reconstituted in amphipols, with bound c-di-AMP (natural protein)
chain: T1 sequence (P96589 1-607)
notes: KimA, K+/H+ symporter of the KUP family, Bacillus subtilis; expressed from pB24KimA; released from the Ni-NTA beads by cleavage at the C-terminal HRV-3C protease site; Homodimer with swapped cytosolic domains, upright arrangement of the transmembrane domains; Residues of the 3C site probably remain at the C-terminus after cleavage; also called KimA in amphipols; not shown: His tag (from the …)
On to B2, for which, in series [7], the binding result is recorded as “binds”.
